Laboratory results as given in the supplement of paper PMC10307832.

Columns and labels:
Experiment in all cases: relative viability (nuclei count vs DMSO), 5 days (fraction); higher = more cells survive
Ispinesib + Tozasertib = compound: Cc1ccc(C(=O)N(CCCN)[C@@H](c2nc3cc(Cl)ccc3c(=O)n2Cc2ccccc2)C(C)C)cc1 [Ispinesib] + Cc1cc(Nc2cc(N3CCN(C)CC3)nc(Sc3ccc(NC(=O)C4CC4)cc3)n2)n[nH]1 [Tozasertib] (partner 0.1 µM)
In short: (§1)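 Values are medians from duplicate plates. Each reflects relative viability, defined as the nuclei count of treated wells over that of vehicle wells. Lung cancer cell lines in 1536-well plates were pin-tool dosed one day after seeding with one drug alone or with a fixed anchor-drug dose plus five library-drug doses (not always all listed) in √10 steps, then fixed, stained and imaged at 4× after 5 days.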

Linsitinib + Luminespib = compound: C[C@]1(O)C[C@@H](c2nc(-c3ccc4ccc(-c5ccccc5)nc4c3)c3c(N)nccn32)C1 [Linsitinib] + CCNC(=O)c1noc(-c2cc(C(C)C)c(O)cc2O)c1-c1ccc(CN2CCOCC2)cc1 [Luminespib] (partner 0.01 µM)
In short: as §1

Ispinesib + Alpelisib = compound: Cc1ccc(C(=O)N(CCCN)[C@@H](c2nc3cc(Cl)ccc3c(=O)n2Cc2ccccc2)C(C)C)cc1 [Ispinesib] + Cc1nc(NC(=O)N2CCC[C@H]2C(N)=O)sc1-c1ccnc(C(C)(C)C(F)(F)F)c1 [Alpelisib] (partner 2 µM)
In short: as §1

Linsitinib + Bortezomib = compound: C[C@]1(O)C[C@@H](c2nc(-c3ccc4ccc(-c5ccccc5)nc4c3)c3c(N)nccn32)C1 [Linsitinib] + CC(C)C[C@H](NC(=O)[C@H](Cc1ccccc1)NC(=O)c1cnccn1)B(O)O [Bortezomib] (partner 0.002 µM)
In short: as §1

| Cell Line | relative viability (Ispinesib + Tozasertib; first compound 0.001 µM) | relative viability (Ispinesib + Tozasertib; first compound 0.003162 µM) | relative viability (Ispinesib + Tozasertib; first compound 0.01 µM) | relative viability (Ispinesib + Tozasertib; first compound 0.03162 µM) | relative viability (Ispinesib + Tozasertib; first compound 0.1 µM) | relative viability (Linsitinib + Luminespib; first compound 0.01 µM) | relative viability (Linsitinib + Luminespib; first compound 0.03162 µM) | relative viability (Linsitinib + Luminespib; first compound 0.1 µM) | relative viability (Linsitinib + Luminespib; first compound 0.3162 µM) | relative viability (Linsitinib + Luminespib; first compound 1 µM) | relative viability (Ispinesib + Alpelisib; first compound 0.001 µM) | relative viability (Ispinesib + Alpelisib; first compound 0.003162 µM) | relative viability (Ispinesib + Alpelisib; first compound 0.01 µM) | relative viability (Ispinesib + Alpelisib; first compound 0.03162 µM) | relative viability (Ispinesib + Alpelisib; first compound 0.1 µM) | relative viability (Linsitinib + Bortezomib; first compound 0.01 µM) | relative viability (Linsitinib + Bortezomib; first compound 0.03162 µM) | relative viability (Linsitinib + Bortezomib; first compound 0.1 µM) | relative viability (Linsitinib + Bortezomib; first compound 0.3162 µM) | relative viability (Linsitinib + Bortezomib; first compound 1 µM) |
| --- | --- | --- | --- | --- | --- | --- | --- | --- | --- | --- | --- | --- | --- | --- | --- | --- | --- | --- | --- | --- |
| LK-2 | 0.159 | 0.175 | 0.183 | 0.158 | 0.158 | 0.173 | 0.152 | 0.187 | 0.192 | 0.166 | 1.33 | 0.97 | 1.23 | 1.07 | 0.412 | – | – | – | – | – |
| NCI-H358 | 0.1 | 0.101 | 0.0892 | 0.116 | 0.0906 | 0.365 | 0.367 | 0.299 | 0.333 | 0.194 | 0.885 | 0.874 | 0.989 | 0.573 | 0.283 | – | – | – | – | – |
| EBC-1 | – | – | – | – | – | – | – | – | – | – | 0.77 | 0.861 | 0.931 | 0.244 | 0.274 | 0.59 | 0.536 | 0.579 | 0.519 | 0.442 |
| NCI-H1703 | – | – | – | – | – | – | – | – | – | – | 0.352 | 0.322 | 0.224 | 0.0938 | 0.135 | 0.416 | – | 0.317 | 0.288 | 0.314 |
| NCI-H1395 | 0.778 | 0.874 | 0.808 | 0.58 | 0.404 | 0.672 | 0.585 | 0.616 | 0.63 | 0.732 | 1.14 | 0.945 | 0.87 | 0.398 | 0.493 | – | – | – | – | – |
| NCI-H1563 | – | – | – | – | – | 0.599 | 0.607 | 0.51 | 0.486 | 0.525 | 0.972 | 0.949 | 0.944 | 0.838 | 0.705 | 0.835 | 0.86 | 0.87 | 0.719 | 0.827 |
| NCI-H1299 | – | – | – | – | – | – | – | – | – | – | 1.11 | 1.09 | 1.15 | 1.17 | 0.449 | 1.06 | 0.972 | 1.05 | 0.944 | 0.986 |
| NCI-H2170 | 0.741 | 0.689 | 0.848 | 0.556 | 0.41 | 0.704 | 0.761 | 0.515 | 0.557 | 0.687 | 0.892 | 0.765 | 0.947 | 0.603 | 0.484 | – | – | – | – | – |
| A549 | – | – | – | – | – | – | – | – | – | – | 0.655 | 0.761 | 1.08 | 0.0901 | 0.0827 | – | – | – | – | – |
| NCI-H2342 | 0.492 | 0.502 | 0.544 | 0.554 | 0.43 | 0.662 | 0.754 | 0.702 | 0.714 | 0.536 | – | – | – | – | – | – | – | – | – | – |
| SW 900 | 0.502 | 0.595 | 0.606 | 0.409 | 0.293 | 0.169 | 0.204 | 0.189 | 0.162 | 0.165 | – | – | – | – | – | – | – | – | – | – |
| NCI-H1648 | 0.532 | 0.484 | 0.394 | 0.498 | 0.44 | – | – | – | – | – | – | – | – | – | – | – | – | – | – | – |
| Calu-6 | – | – | – | – | – | – | – | – | – | – | 1.04 | 0.901 | 0.551 | 0.134 | 0.145 | 0.996 | 1.04 | 1.05 | 0.867 | 0.905 |
